In PubChem BioAssay (NCI) one finds GI50 and TGI data, which are given here for 34 compounds.

Several values for one entry are separate records, joined by “and”; a condition that tells them apart may be missing. Identical values can stand only once.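 Growth conditions: 96-well plates. Treatment: test compound, 48 hours, 5 concentrations. Analysis: linear interpolation between bracketing concentrations; unreached endpoints set to highest concentration. At the GI50, growth is halved. TGI: total growth inhibition.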 Some results are limits rather than exact numbers.

The test system of this test is MDA-MB-468 breast. Put plainly: NCI tumour cell line growth inhibition, 48 h.

In the case of `CCN1CCN(c2ccc(Nc3ncc4ccc5ncn(C(C)C)c5c4n3)nc2)CC1`, the GI50 is 177 nM and the TGI amounted to 444 nM.

Take `O=c1cc(-c2cccc(OCc3ccccc3)c2)[nH]c2cc3c(cc12)OCO3`: the GI50 was 9590 nM and the TGI is above 100000 nM.

As to `N#Cc1nn(-c2cc(=O)[nH]c3ccc(Br)cc23)c(N)c1C#N`, the GI50 was above 100000 nM and the TGI was above 100000 nM.

In the case of `Oc1c(I)cc(I)cc1CN(Cc1ccccn1)Cc1ccccn1`, the GI50 is 1310 nM and the TGI was 7280 nM.

In the case of `Clc1ccc2c(NCCNc3nc(N4CCCC4)nc4ccccc34)ccnc2c1`, the GI50 is 1200 nM and the TGI was found to be 3430 nM.

With `Fc1cccc(-c2[nH]nc3nc(Nc4cccnc4)sc23)c1`, the GI50 is 360 nM and the TGI turned out to be 3000 nM.

With `CC(CN)[C@@H]1CC[C@]2(CO)CC[C@]3(C)[C@H](CC[C@@H]4[C@@]5(C)CCC(N)C(C)(C)[C@@H]5CC[C@]43C)[C@@H]12` (some centres not stated), the GI50 was 1590 nM and the TGI came to 3250 nM.

For the compound `Cc1nn(C)c2cc(N(C)c3ccnc(Nc4cccc(S(N)(=O)=O)c4)n3)ccc12`, the GI50 is 4190 nM and the TGI was determined as 13700 nM.

Regarding `C/C(=C\c1ccn(-c2ccc(N)cc2F)n1)[C@@H]1C[C@@H]2O[C@]2(C)CCC[C@H](C)[C@H](O)[C@@H](C)C(=O)C(C)(C)[C@@H](O)CC(=O)O1`, the GI50 is 26.3 nM and the TGI amounted to 300 nM.

`Oc1ccc(-c2nnc(SCc3ccc(O)c4ncccc34)n2-c2ccccc2)cc1`: the GI50 was 421 nM and the TGI amounted to 2830 nM.

`O=S(=O)(Nc1ccccn1)c1ccc(N=Nc2ccc(O)c3ncccc23)cc1`: the GI50 was 2230 nM and the TGI is 8440 nM.

With `C=C1C(=O)O[C@H]2[C@H]1CC/C(COC(=O)NCc1cc(OC)cc(OC)c1)=C\CC[C@@]1(C)O[C@@H]21`, the GI50 is 580 nM and the TGI was 2330 nM.

For the compound `C=CCSSc1ncnc2c1ncn2C1OC(CO)C(O)C1O` (configuration not stated), the GI50 is 217 nM and the TGI is 4460 nM.

`CCN(CC)CC[n+]1cc2cc(OC)c(OC)cc2c2ccc3cc4c(cc3c21)OCO4`: the GI50 is 241 nM and the TGI turned out to be 1090 nM.

Regarding `C[C@@H]1OCC2(CCN(c3cnc(Sc4ccnc(N)c4Cl)c(N)n3)CC2)[C@@H]1N`, the GI50 is 14800 nM and the TGI was above 100000 nM.

In the case of `Nc1c2ccccc2nc2ccccc12` (tested in a mixture with another compound), the GI50 was 1070 nM and the TGI is 3210 nM.

In the case of `Oc1c(CN2CCN(c3ccccc3F)CC2)cc(Br)c2cccnc12`, the GI50 was 673 nM and the TGI was 6840 nM.

Take `CC#CC(=O)N1CC[C@@H](n2c(=O)n(-c3ccc(Oc4ccccc4)cc3)c3c(N)ncnc32)C1`: the GI50 was 10500 nM and the TGI turned out to be 60200 nM.

`C=C(C)[C@@H]1CC[C@]2(C(N)=O)CC[C@]3(C)[C@H](CC[C@@H]4[C@@]5(C)C/C(=C/c6cccnc6)[C@H](O)C(C)(C)[C@@H]5CC[C@]43C)[C@@H]12`: the GI50 is 4050 nM and the TGI is above 100000 nM.

Consider `COc1cc(N2CCC(N3CCN(C)CC3)CC2)ccc1Nc1ncc(Cl)c(Nc2ccccc2S(=O)(=O)C(C)C)n1`, for which the GI50 is 483 nM and the TGI worked out at 1780 nM.

With `Cc1nc2sc(C(=O)Nc3cccc(Br)c3)c(N)c2cc1C(O)c1ccccc1` (configuration not stated), the GI50 is 380 nM and the TGI came out at 10200 nM.

With `COc1ccc2nc3ccccc3c(NCc3ccc(C)cc3)c2c1`, the GI50 was 1810 nM and the TGI was found to be 3920 nM.

`CN1CCN(CC(=O)N2c3cccc4cccc(c34)N(C(=O)CN3CCN(C)CC3)C2c2cn(-c3ccccc3)nc2-c2cccc([N+](=O)[O-])c2)CC1`: the GI50 was 1610 nM and the TGI is 3060 nM.

For the compound `O=C(NCCCCCCNC(=O)OCc1ccc2c(Cl)cc(Cl)c(O)c2n1)OCc1ccc2c(Cl)cc(Cl)c(O)c2n1`, the GI50 is 590 nM and the TGI was determined as 2140 nM.

`Cc1cc2nc(C(Cl)Cl)nc(-c3ccccc3)n2n1`: the GI50 is 1810 nM and the TGI came out at 4450 nM.

Take `O=[N+]([O-])c1cc2c(c([N+](=O)[O-])c1)Nc1ccccc1O2`: the GI50 is 2140 nM and the TGI was 9840 nM.

Take `O=C(O)c1ccccc1Nc1ccc2nnc(-c3ccncc3)n2n1`: the GI50 was 1960 nM and the TGI was 4590 nM.

Take `Cc1ccc(C2=NN(c3ccc(S(N)(=O)=O)cc3)C(c3cn(-c4ccccc4)nc3-c3ccccc3)C2)cc1` (configuration not stated): the GI50 was 24300 nM and the TGI was above 100000 nM.

`COc1cnc2c(c1)C(=O)c1c-2n(CCCNC(C)C)c(=O)c2cc([N+](=O)[O-])ccc12`: the GI50 was 20.6 nM and the TGI worked out at 60.3 nM.

As for `CCOCCOC[C@H]1CCCN(c2ccnc3sc(C(N)=O)c(N)c23)C1`, the GI50 is 3440 nM and the TGI is above 100000 nM.

On to `COc1ccc2nc(-c3cc4c([nH]c5ccccc54)c(-c4ccc(F)c(F)c4)n3)[nH]c2c1`, for which the GI50 is 1700 nM and the TGI came out at 3920 nM.

For the compound `CNC(=O)CN1CCC(Oc2cc3c(Nc4cccc(Cl)c4F)ncnc3cc2OC)CC1`, the GI50 was < 10 nM and 4.03 nM.

With `COc1ccc(C2CC(=O)c3c(O)c(OC)c(OC)c(OC)c3O2)cc1O` (configuration not stated), the GI50 is 1510 nM and the TGI was above 100000 nM.

`COc1cc(C)c(NC(=O)CN(C)C)cc1Nc1nc(Nc2cccc(F)c2C(N)=O)c2cc[nH]c2n1`: the GI50 was 263 nM and the TGI is 1210 nM.
